Earlier results as cited in PMC4526387 (Clinical cancer research : an official journal of the …, 2015).

Tested on: metastatic renal cell carcinoma (mRCC)
Settings: subset with one prior VEGF-TKI; ref AXIS trial; cited from earlier work

CNC(=O)c1ccccc1Sc1ccc2c(/C=C/c3ccccn3)n[nH]c2c1 [axitinib]
median PFS: 4.8 months
